Laboratory results from US5159085A, “2-anilino phenylacetic acid derivatives as inhibitors of PLA2 and lipoxygenase” (American Home Products Corporation, priority 1991, dated 1992).

Experiments:
[1] = system: LTB4 synthesis by rat glycogen-elicited polymorphonuclear leukocytes (lipoxygenase); experiment: Inhibition of LTB4 synthesis by rat glycogen-elicited polymorphonuclear leukocytes (PMN); assay type: cell-based, rat (female Wistar); conditions: Rattus norvegicus, Leukocyte, A 23187 and exogenous AA
Description: This is especially true with respect to 5,12-diHETE, which is also denoted as LTB4 [see Ford-Hitchinson, J. Roy. Soc. Med., 74, 831 (1981)]. Compounds which inhibit the PLA2 -mediated release of arachidonic acid thereby effectively prevent the oxidation of arachidonic acid to the various leukotriene products via the lipoxygenase cascade. Accordingly, the specificity of action of PLA2 inhibitors can be determined by the activity of test compounds in this assay, which measures the ability of compounds to inhibit the synthesis of LTB4 by rat glycogen-elicited polymorphonuclear leukocytes (PMN) in the presence of exogenous substrate.
The assay is carried out as follows:
Rat polymorphonuclear leukocytes (PMNs) are obtained from female Wistar rats (150-200 g) which receive an injection of 6% glycogen (10 ml i.p.). Rats are sacrificed 18-24 hours post injection by CO2 asphyxiation and the elicited cells are harvested by peritoneal lavage using physiological saline (0.9% NaCl). The exudate is centrifuged at 400×g for 10 minutes. The supernatant fluid is discarded and the cell pellet is resuspended to a concentration of 2.0×10^7 cells/ml in HBSS containing Ca^++ and Mg^++ and 10 μM L-cysteine.
To 1 ml aliquots of cell suspension, test drugs or vehicle are added, then preincubated at 37° C. for 10 minutes. A 23187 (1 μM), [^3 H]-AA (3.0 μCi/ml) and unlabeled AA (1 μM) are then added and the samples are further incubated for 10 minutes. The reaction is terminated by centrifugation and pelleting cells. Supernatants are then analyzed by HPLC analysis on a 15 cm×4.6 mm ID supelcosil LC-18 (Supelco)(3M) column, using a two solvent system at a flow rate of 1.4 ml total flow as follows:
Gradient: (system is equillibrated with Solvent A)
Percent solvent changes are accomplished in a linear fashion.
Injections: 150 μl of each supernatant is injected directly onto column and ^3 H arachidonic acid metabolites are monitored using an on-line radioactivity detector (Ramona, IN/US, Fairfield, NJ).
Standards: 10^4 -2.0×10^4 dpm of eicosanoids of interest are injected in 90 μl EtOH cocktail.
Co-chromatography with standard [^3 H] leukotriene B4 (LTB4) in medium of stimulated PMN exposed to drug is compared to that found in medium of stimulated cells exposed to no drug, generating percent inhibition.
Results are expressed as percent inhibition at a given compound dose or as an IC50 value.

LTC4 = experiment: In vivo murine zymosan peritonitis assay, LTC4 (lipoxygenase pathway); parameters: species or system mouse (male CD-1)
Description: The compounds of the invention are evaluated for their ability to inhibit the lipoxygenase and/or cyclooxygenase pathways of arachidonic acid metabolism in the in vivo murine zymosan peritonitis assay.
(§1) This assay is carried out as follows:
Male CD-1 mice (8 weeks old) are placed in plastic boxes in groups of six. Animals are injected with 1 ml i.p. of either 1% zymosan in pyrogen free 0.9% saline or saline (unstimulated control). Compounds are dosed orally 1 hour prior to zymosan injection. Twenty minutes after zymosan injection, the mice are asphyxiated by CO2 inhalation and the peritoneal cavity is lavaged with 2 ml ice cold Hanks Balanced Salt Solution (HBSS) without CaCl2, MgSO4 ·7H2 O and MgCL2 ·6H2 O. Peritoneal lavage fluid from each mouse is removed by syringe and placed in 5 ml plastic test tubes put on ice and volume is noted. Preparation of samples for evaluation by ELISA is as follows: Samples are centrifuged at 800×g for 15 minutes; 1 ml of the supernatant is added to 8 ml ice cold methanol and kept at -70° C. overnight to precipitate protein; and samples are then centrifuged at 800×g for 15 minutes, followed by a drying procedure in a Savant speed vac concentrator. The samples are reconstituted with 1 ml ice cold ELISA buffer and stored at -70° C. until assayed. The assay for eicosanoids (LTC4 and 6-keto-PGF1α) is performed according to conventional ELISA procedures.
Compounds to be tested orally are suspended in 0.5% Tween 80. Compounds to be tested intraperitoneally are suspended in 0.5% methylcellulose in 0.9% saline.
The total metabolite level in lavage fluid/mouse is calculated and the significance is determined by a one-way analysis of variance with LSD comparisons to control (p≤0.05). Drug effects are expressed as a percent change from control values.

[2] = Rat acute gastroirritation assay; parameters: species or system rat (male Sprague Dawley); conditions: in vivo, po, gastric intubation, read-out: UD50
Description: The compounds of the invention are tested in the rat acute gastroirritation assay to examine their potential for causing gastric irritation when administered at doses exceeding the effective dose.
as §1
Male Sprague Dawley rats (190-220 g) are fasted for 18 hours prior to drug administration. Rats are divided into groups of 8 and coded (i.e., observer of gastric lesions is not aware of drug treatment). Drugs are dissolved or suspended in 0.5% Tween 80 and administered by gastric intubation in a volume of 1 ml/100 g body weight, control rats receiving only Tween 80. Four hours after drug administration, rats are evaluated by recording the incidence and severity of gastroirritation using the following scoring system: 0) No irritation or lesions; 1) irritation (redness); 2) ≤5 lesions (ulcers); and 3) >5 lesions. Dunnett's test (α=0.05) is used to calculate the mean ±SE of each test group and the statistical significance.

| SMILES | IC50 [1] | % Inhibition LTC4 (LTC4; 50 mg/kg p.o.) | % Inhibition LTC4 (LTC4; 100 mg/kg p.o.) | TD50 at 4 h [2] |
| --- | --- | --- | --- | --- |
| O=C(O)Cc1cc(OCc2ccc3ccccc3n2)ccc1Nc1c(Cl)cccc1Cl [Example 2, 2-[(2,6-Dichlorophenyl)amino]-5-(2-quinolylmethoxy)benzene acetic acid] | 0.01 µM | 47% | 78% | – |
| O=C(O)Cc1ccccc1Nc1c(Cl)cccc1Cl [diclofenac, reference compound] | – | – | – | 20 mg/kg |
